Experimental data from paper PMC6934184, “Selective DNA-PKcs inhibition extends the therapeutic index of localized radiotherapy and chemotherapy” (The Journal of Clinical Investigation, 2019).

Molecular target: T1, DAPK2 (Homo sapiens, UniProt Q9UIK4)
T1 construct: purchased Thermo Fisher Scientific (Life Technologies) SelectScreen
Assay: SelectScreen LanthaScreen
Type: binding
Conditions: read-out: % displacement
Protocol: The in vitro kinase selectivity of NU5455 was determined using the SelectScreen Broad Assay Panel (Thermo Fisher Scientific) involving activity and binding assays (Supplemental Table 1). […] Class IA PI3Ks were measured using the p85α subunit.
Kinase [ATP] % Assay Kinase [ATP] % Assay Kinase [ATP] % Assay Kinase [ATP] % Assay
DNA-PK Km app 98.3 Z LATS2 n/a 4.7 L KIT D820E n/a 1.3 L GSK3B (GSK3 beta) Km app -2.5 Z
PIK3C3 (hVPS34) Km app 85.9 A PRKCZ (PKC zeta) Km app 4.7 Z GRK1 n/a 1.3 L BMPR2 n/a -2.5 L
PIK3C2B (PI3K-C2 beta) 10 28.9 A FGFR1 Km app 4.7 Z BRSK2 n/a 1.2 L CDC42 BPB (MRCKB) Km app -2.5 Z
SNF1LK2 Km app 26.6 Z MINK1 Km app 4.6 Z NUAK1 (ARK5) Km app 1.2 A AMPK (A2/B2/G2) n/a -2.6 L
HCK Km app 18.0 Z CSF1R (FMS) Km app 4.3 Z CDK9/cyclin K n/a 1.0 L PRKG1 Km app -2.7 Z
NEK2 Km app 17.8 Z CSNK1G3 (CK1 gamma 3) Km app 4.2 Z NUAK2 n/a 1.0 L KIT T670E n/a -2.8 L
ALK Km app 17.3 Z STK32C (YANK3) n/a 4.2 L CDK2/cyclin O n/a 0.9 L ERBB4 (HER4) Km app -2.8 Z
FGFR3 K650M n/a 16.5 L STK22D (TSSK1) Km app 4.2 Z CAMKK2 (CaMKK beta) n/a 0.9 L PLK4 n/a -2.8 L
SIK3 n/a 16.1 L TAOK3 (JIK) n/a 4.2 L FGFR3 Km app 0.9 Z GRK7 Km app -3.0 Z
LYN A Km app 15.2 Z RPS6KA4 (MSK2) Km app 4.2 Z ULK2 n/a 0.9 L MAPKAPK2 Km app -3.1 Z
BMPR1B (ALK6) n/a 14.5 L PTK2B (FAK2) Km app 4.2 Z KIT D816V n/a 0.9 L FGFR4 Km app -3.1 Z
INSRR (IRR) Km app 14.1 Z CLK2 Km app 4.1 Z CAMK1 (CaMK1) 10 0.8 A CASK n/a -3.1 L
PLK2 Km app 14.1 Z STK24 (MST3) Km app 4.1 Z PTK6 (Brk) Km app 0.7 Z GRK5 Km app -3.2 Z
PRKACA (PKA) Km app 14.0 Z CAMK1D (CaMKI delta) Km app 4.1 Z CAMK2B (CaMKII beta) Km app 0.7 Z EGFR (ErbB1) T790M Km app -3.3 Z
EIF2AK2 (PKR) n/a 13.3 L INSR Km app 4.1 Z ACVR1 (ALK2) n/a 0.7 L PAK4 Km app -3.3 Z
PRKX Km app 12.5 Z IRAK1 Km app 4.0 A ABL1 H396P n/a 0.6 L DAPK3 (ZIPK) Km app -3.4 Z
FGR Km app 12.1 Z SRC N1 Km app 3.9 Z MERTK (cMER) A708S n/a 0.6 L RET M918T n/a -3.5 L
CLK1 Km app 11.7 Z SRPK2 Km app 3.9 Z MAPKAPK5 (PRAK) Km app 0.6 Z PRKCQ (PKC theta) Km app -3.7 Z
MARK3 Km app 11.4 Z RPS6KA6 (RSK4) Km app 3.8 Z AKT1 (PKB alpha) Km app 0.5 Z CAMKK1 (CAMKKA) n/a -3.8 L
PDGFRB (PDGFR beta) Km app 11.0 Z GRK6 Km app 3.7 Z NTRK3 (TRKC) Km app 0.4 Z FLT3 D835Y Km app -3.9 Z
PRKCN (PKD3) Km app 10.7 Z PKN1 (PRK1) Km app 3.6 Z ZAP70 Km app 0.3 Z ROCK2 Km app -4.1 Z
STK16 (PKL12) n/a 10.5 L MAP3K8 (COT) 100 3.5 Z CSNK1A1 (CK1 alpha 1) Km app 0.3 Z CHUK (IKK alpha) Km app -4.2 A
FES (FPS) Km app 10.4 Z FLT4 (VEGFR3) Km app 3.5 Z MYLK (MLCK) n/a 0.2 L AXL Km app -4.2 Z
ABL1 Km app 10.4 Z GRK4 Km app 3.5 Z MKNK2 (MNK2) n/a 0.2 L PIM2 Km app -4.3 Z
MUSK Km app 10.3 Z FRK (PTK5) Km app 3.4 Z AMPK (A1/B1/G3) n/a 0.2 L PAK1 Km app -4.4 Z
MAPK1 (ERK2) Km app 10.1 Z FYN A n/a 3.3 L MAP3K2 (MEKK2) n/a 0.1 L BMPR1A (ALK3) n/a -4.4 L
BRAF 100 9.9 Z CDK1/cyclin A2 n/a 3.3 L CDK8/cyclin C n/a 0.1 L STK4 (MST1) Km app -4.4 Z
IGF1R Km app 9.7 Z KIT V559D T670I n/a 3.1 L MARK2 Km app 0.1 Z PRKCH (PKC eta) Km app -4.6 Z
MAPK14 (p38 alpha) Km app 9.7 Z SPHK2 10 3.1 A ICK n/a 0.0 L SGKL (SGK3) Km app -4.6 Z
LCK Km app 9.6 Z FGFR3 G697C n/a 3.1 L FGFR2 Km app 0.0 Z PI4KB (PI4K beta) Km app -4.7 A
MAPK11 (p38 beta) Km app 9.5 Z RIPK2 n/a 3.1 L AKT2 (PKB beta) Km app 0.0 Z PRKCE (PKC epsilon) Km app -4.9 Z
SRC Km app 9.5 Z PAK6 Km app 3.0 Z EPHB2 Km app -0.1 Z PHKG1 Km app -5.0 Z
CHEK1 (CHK1) Km app 9.3 Z LYN B Km app 3.0 Z TGFBR2 n/a -0.1 L PDGFRA D842V Km app -5.0 Z
CAMK2D (CaMKII delta) Km app 9.3 Z DAPK2 n/a 2.9 L TEK (Tie2) Km app -0.1 Z PRKG2 (PKG2) Km app -5.1 Z
PLK1 Km app 9.2 Z EPHA4 Km app 2.9 Z AURKA (Aurora A) Km app -0.1 Z TYRO3 (RSE) Km app -5.1 Z
RET Y791F Km app 9.2 Z PIK3CG (p110 gamma) Km app 2.9 A KIT D816H n/a -0.2 L TAOK2 (TAO1) Km app -5.1 Z
FLT3 Km app 9.1 Z HIPK1 (Myak) Km app 2.8 Z KIT N822K n/a -0.2 L EPHB4 Km app -5.3 Z
MAPK10 (JNK3) 100 9.0 Z ADRBK2 (GRK3) Km app 2.8 Z PRKACG (PRKAC gamma) n/a -0.2 L AURKC (Aurora C) Km app -5.4 Z
CSNK2A2 (CK2 alpha 2) Km app 8.7 Z STK17B (DRAK2) n/a 2.7 L TEK (TIE2) Y1108F n/a -0.3 L JAK1 Km app -5.7 Z […]

T1 sequence (Q9UIK4 whole entry): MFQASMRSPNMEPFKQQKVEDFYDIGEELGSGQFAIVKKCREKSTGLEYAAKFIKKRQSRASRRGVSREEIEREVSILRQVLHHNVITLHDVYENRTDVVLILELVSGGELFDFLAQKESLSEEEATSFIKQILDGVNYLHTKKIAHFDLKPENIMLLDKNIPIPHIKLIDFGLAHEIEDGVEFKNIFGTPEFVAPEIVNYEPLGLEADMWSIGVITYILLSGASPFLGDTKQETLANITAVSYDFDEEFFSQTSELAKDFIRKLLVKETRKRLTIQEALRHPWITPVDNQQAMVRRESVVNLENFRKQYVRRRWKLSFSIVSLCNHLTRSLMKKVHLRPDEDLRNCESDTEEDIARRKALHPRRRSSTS

CN(C(=O)CN1CCOCC1)c1ccc2sc3c(-c4cccc5c(=O)cc(N6CC7CCC(C6)O7)oc45)cccc3c2c1 [NU5455]
inhibition at 1 µM: 2.9%
